Measurements from publication PMC10980815, “Cell surface patching via CXCR4-targeted nanothreads for cancer metastasis inhibition” (Nature Communications, 2024).
Where “and” joins values, the source holds several entries; their conditions need not be identical. Identical values can stand only once. Ends that are not written are not given here. HPMA copolymer = HPMA copolymer made by RAFT copolymerization of HPMA with N-(3-aminopropyl)methacrylamide (APMA), bearing maleimide groups for grafting

Assays:
4T1 cells [1] = experiment: Label-free proteomics analysis; format: cell-based, murine; conditions: Fig. 4f proteomics heatmap value
Description: For proteomics analysis, 4T1 cells (5 × 10^5 cells) were seeded in 12-well plates (NEST Biotechnology). […] Cell samples were submitted for label-free proteomics analysis (Shanghai Omics-space Biotech Co., Ltd., Shanghai, China). The analysis included protein extraction, protein digestion, LC − MS/MS detection (Thermo Scientific Orbitrap-Fusion Lumos), protein quantitation and identification (MaxQuant 1.5.5.1), and bioinformatics analysis.

[2] = test system: orthotopic 4T1 breast tumors; experiment: Spontaneous lung metastasis model: tumor volume and pulmonary metastatic nodules; format: in vivo, female BALB/c mice; conditions: for Number of metastatic nodules: Fig. 5e, pulmonary
Description: For the in vivo investigation of pulmonary metastasis, 4T1 cells (1 × 10^6 cells) were injected into the third mammary fat pad of female BALB/c mice (6–8 weeks). […] Tumor volumes were recorded every other day. On day 28, lungs were harvested and fixed with Bouin’s solutions. The pulmonary metastatic nodules were counted and analyzed by hematoxylin-eosin staining.

TGF-β = TGF-β ELISA (intra-tumoral, serum, pulmonary); format: in vivo, female BALB/c mice; parameters: Pulmonary TGF-β: unit not given beside the values; Intratumoral TGF-β / Systemic TGF-β: unit not given here; conditions: for Systemic TGF-β: serum
Description: (§1) 4T1 cells (1 × 10^6 cells) were injected into the third mammary fat pad of female BALB/c mice (6–8-week). […] On day 28, blood samples, lungs and tumors were harvested.
(§2) To explore the “seed-soil” crosstalk, the serum, intra-tumoral, and pulmonary concentration of LOX was determined using enzyme-linked immunosorbent assay kits (CSB-EL013041MO, CUSABIO, https://www.cusabio.com/) according to the manufacturer’s instructions. The serum, intra-tumoral, and pulmonary concentration of TGF-β was determined using mouse TGF-β ELISA Kit (Cat No.: HB1328-Mu). The formation of PMN was investigated through lung slices subjected to immunofluorescent staining of LOX, E-cadherin, and S100A8. For immunofluorescent staining of E-cadherin, Lung slices were stained with CoraLite® Plus 647 anti-mouse CD324 (E-cadherin, 1:300 dilution). For immunofluorescent staining of LOX and S100A8, Lung slices were separately stained with anti-LOX recombinant rabbit monoclonal antibody (1:500 dilution) or S100-A8 / MRP8 rabbit pAb (1:500 dilution), followed by staining with goat anti-rabbit IgG H&L Alexa Fluor® 647 (1:1000 dilution), respectively. Single-cell suspensions of lungs were analyzed using flow cytometry to assess BMDC (CD11b^+Gr1^+) with PE anti-mouse/human CD11b antibody (1:300 dilution) and FITC anti-mouse Ly-6G/Ly-6C (Gr-1) antibody (1:300 dilution). Chemokine concentrations in lungs were determined using a mouse CXCL12 ELISA kit.

[3] = test system: pulmonary CD11b+Gr1+ BMDCs; experiment: Pulmonary BMDCs (CD11b+Gr1+) by flow cytometry; format: in vivo, female BALB/c mice
Description: as §1, §2

4T1 cells [4] = experiment: Transwell migration assay; format: cell-based, murine; conditions: stimulated 4T1 cells; individual replicates, n = 3
Description: Wound healing assay and transwell migration and invasion assay were conducted to investigate in vitro metastasis inhibition. For the wound healing assay, 4T1 cells (5 × 10^5 cells) were cultured in 12-well plates (NEST Biotechnology) as monolayer with more than 90% coverage. Sterile 200 μL pipette tips were used to scrape off the cells, generating a linear cell-free area in the middle of the well. Subsequently, cells were washed by PBS to remove debris. In the stimulated group, 4T1 cells were stimulated with CXCL12 (100 ng/mL) for 1 h. […] In the P-BS-CM1 → P-CM2 group, 4T1 cells underwent consecutive treatment with P-BS-CM1 for 1 h and P-CM2 for 1 h before CXCL12 stimulation (1 mg/mL BS equivalence, CM1:CM2, 1:1 mol%). Images of the wound were recorded by a microscope at 0 h and 24 h after CXCL12 stimulation, and the wound healing rate was calculated using Image J software. For the transwell migration and invasion assay, 4T1 cells (5 × 10^5 cells) were seeded in the non-coated upper chamber (Millipore, 8 μm) or GelNest™ matrigel (NEST Biotechnology) pre-coated upper chamber. The cells underwent the same treatment conditions as wound healing assay. After 24 h of treatment, migrated or invaded cells across the membrane were stained with 0.1% crystal violet, imaged by microscope, and quantified by absorbance at 570 nm after dissolution.

LOX = experiment: Immunofluorescence of LOX in lung tissues; format: in vivo, female BALB/c mice
Description: as §2

ζ-potential (Zetasizer) = format: physicochemical; conditions: Malvern Zetasizer Nano ZS90; mean ± SD
Description: The average molecular weight (Mw) and polydispersity (PDI) of the HPMA copolymer conjugates were determined by gel permeation chromatography (GPC) on an AKTA purifier equipment with a Superose 6 10/300 GL analytical column (GE Healthcare, USA) and a differential refraction detector (KNAUER, 2300, Germany). Hydrodynamic sizes and zeta potentials were determined using a Malvern Zetasizer Nano ZS90 equipment (Malvern Instruments Ltd, Malvern, UK). The contents of BS, CM1, and CM2 were determined using a bicinchoninic acid (BCA) protein assay. The PS concentration was determined by ultraviolet-visible (UV-Vis) spectroscopy at its characteristic absorbance peak (660 nm).

[5] = i.v. days 7, 14, 21 (5 mg/kg BS equivalence; P-CM2 24 h later), analysis day 28, mouse 1 of 5

Substance | PKA C-alpha (4T1 cells [1]; replicate 1) | VDAC3 (4T1 cells [1]; replicate 1) | PKA C-alpha (4T1 cells [1]; replicate 2) | VDAC3 (4T1 cells [1]; replicate 2) | PKA C-alpha (4T1 cells [1]; replicate 3) | VDAC3 (4T1 cells [1]; replicate 3) | Number of metastatic nodules ([2]; mouse 1) | Number of metastatic nodules ([2]; mouse 2) | Number of metastatic nodules ([2]; mouse 3) | Number of metastatic nodules ([2]; mouse 4) | Number of metastatic nodules ([2]; mouse 5) | Intratumoral TGF-β (TGF-β; replicate 1) | Pulmonary TGF-β (TGF-β; replicate 1) | Intratumoral TGF-β (TGF-β; replicate 2) | Pulmonary TGF-β (TGF-β; replicate 2) | Intratumoral TGF-β (TGF-β; replicate 3) | Pulmonary TGF-β (TGF-β; replicate 3) | Intratumoral TGF-β (TGF-β; replicate 4) | Pulmonary TGF-β (TGF-β; replicate 4) | Intratumoral TGF-β (TGF-β; replicate 5) | other results
LGASWHRPDKCCLGYQKRPLPA [Free BS] | -0.6179 | 0.5272 | 0.3837 | -0.8599 | -0.4642 | 0.1524 | 31 | 28 | 25 | 36 | 27 | 20.98 | 9.12 | 26.43 | 10.3 | 26.11 | 11.1 | 22.3 | 10.7 | 20.45 | lung metastatic nodule burden at endpoint ([2]; three weekly i.v. cycles, day 28): high metastatic nodule burdens; Pulmonary TGF-β (TGF-β; replicate 5): 8.9; Systemic TGF-β (TGF-β; replicate 1): 321.2; Systemic TGF-β (TGF-β; replicate 2): 324.5; Systemic TGF-β (TGF-β; replicate 3): 372.1; Systemic TGF-β (TGF-β; replicate 4): 355.2; Systemic TGF-β (TGF-β; replicate 5): 352; Pulmonary CD11b+Gr1+ BMDCs (%) [3, 5]: 31.8%; Pulmonary CD11b+Gr1+ BMDCs (%) ([3]; same, mouse 2 of 5): 39.87%; Pulmonary CD11b+Gr1+ BMDCs (%) ([3]; same, mouse 3 of 5): 35.6%; Pulmonary CD11b+Gr1+ BMDCs (%) ([3]; same, mouse 4 of 5): 41%; Pulmonary CD11b+Gr1+ BMDCs (%) ([3]; same, mouse 5 of 5): 39.4%; Migration content (%) (4T1 cells [4]): 99.141% and 98.012% and 94.753%; Mean fluorescence intensity of LOX in lung tissues (LOX; replicate 1): 145.665; Mean fluorescence intensity of LOX in lung tissues (LOX; replicate 2): 136.817; Mean fluorescence intensity of LOX in lung tissues (LOX; replicate 3): 150.369; Mean fluorescence intensity of LOX in lung tissues (LOX; replicate 4): 132.821; Mean fluorescence intensity of LOX in lung tissues (LOX; replicate 5): 140.21
P-BS: HPMA copolymer-BS conjugate, ~6 BS grafts per polymer (LGASWHRPDKCCLGYQKRPLPA; not fully specified (residues 11, 12); also: about 6 peptides grafted on HPMA copolymer via cysteine-maleimide thioether links) | -1.375 | -0.0121 | 0.3768 | 1.023 | 0.8503 | 1.779 | 15 | 17 | 22 | 19 | 28 | 15.43 | 5.4 | 15.3 | 5.1 | 19.3 | 7.1 | 17.3 | 6.3 | 15.33 | ζ-potential (ζ-potential (Zetasizer)): -15.53±1.45 mV; Pulmonary TGF-β (TGF-β; replicate 5): 4.2; Systemic TGF-β (TGF-β; replicate 1): 276.4; Systemic TGF-β (TGF-β; replicate 2): 245.1; Systemic TGF-β (TGF-β; replicate 3): 225.1; Systemic TGF-β (TGF-β; replicate 4): 267.3; Systemic TGF-β (TGF-β; replicate 5): 241.2; Pulmonary CD11b+Gr1+ BMDCs (%) [3, 5]: 25.1%; Pulmonary CD11b+Gr1+ BMDCs (%) ([3]; same, mouse 2 of 5): 26.4%; Pulmonary CD11b+Gr1+ BMDCs (%) ([3]; same, mouse 3 of 5): 34.2%; Pulmonary CD11b+Gr1+ BMDCs (%) ([3]; same, mouse 4 of 5): 28.9%; Pulmonary CD11b+Gr1+ BMDCs (%) ([3]; same, mouse 5 of 5): 29.8%; Migration content (%) (4T1 cells [4]): 52.3% and 41.02% and 47.1%; Mean fluorescence intensity of LOX in lung tissues (LOX; replicate 1): 121.535; Mean fluorescence intensity of LOX in lung tissues (LOX; replicate 2): 108.102; Mean fluorescence intensity of LOX in lung tissues (LOX; replicate 3): 109.056; Mean fluorescence intensity of LOX in lung tissues (LOX; replicate 4): 97.784; Mean fluorescence intensity of LOX in lung tissues (LOX; replicate 5): 101.188
P-CM2-Cy3: Cy3-labeled P-CM2 (C(HPMA copolymer)YGGEVSALEKEVSALEKKNSALEKEVSALEKEVSALEK; also: Cy3 label on conjugate, position not given here) |  |  |  |  |  |  |  |  |  |  |  |  |  |  |  |  |  |  |  |  | ζ-potential (ζ-potential (Zetasizer)): -9.21±0.67 mV
